From publication PMC6364417, “Kinase inhibitor library screening identifies synergistic drug combinations effective in sensitive and resistant melanoma cells” (Journal of Experimental & Clinical Cancer Research : CR, 2019)

Experiments:
Test in all cases: Kinase inhibitor library screening, PrestoBlue cell viability, 1 or 10 μM, 72 h
[1] = test system: A375-GP cells (Dabrafenib-resistant); conditions: A375 GP
[2] = test system: 501Mel-GP cells (Dabrafenib-resistant); conditions: 501Mel GP
501Mel cells (parental) = conditions: 501Mel Parental
Procedure, shortened: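 Treatment: 72 h with inhibitor. Detection: PrestoBlue, plate reader. Output: viability as % untreated control. Replicates: duplicate minimum. Lines: parental plus Vemurafenib- or Dabrafenib-resistant derivatives.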

[3] = test system: IGR37-XP cells (Vemurafenib-resistant); conditions: IGR37 XP
[4] = test system: A375-XP cells (Vemurafenib-resistant); conditions: A375 XP
A375 cells (parental) = conditions: A375 Parental
[5] = test system: 501Mel-XP cells (Vemurafenib-resistant); conditions: 501Mel XP
[6] = test system: IGR37-GP cells (Dabrafenib-resistant); conditions: IGR37 GP
IGR37 cells (parental) = conditions: IGR37 Parental

SMILES: COc1cc(Nc2c(C#N)cnc3cc(OCCCN4CCN(C)CC4)c(OC)cc23)c(Cl)cc1Cl [Bosutinib (SKI-606)]
- cell viability (kinase inhibitor library screening) ([1]; 1μΜ, in %): 85.6
- cell viability (kinase inhibitor library screening) ([1]; 10μΜ, in %): 32.7
- cell viability (kinase inhibitor library screening) ([2]; 1μΜ, in %): 91.9
- cell viability (kinase inhibitor library screening) ([2]; 10μΜ, in %): -0.266
- cell viability (kinase inhibitor library screening) (501Mel cells (parental); 1μΜ, in %): 98.4
- cell viability (kinase inhibitor library screening) (501Mel cells (parental); 10μΜ, in %): 0.645
- cell viability (kinase inhibitor library screening) ([3]; 1μΜ, in %): 98.8
- cell viability (kinase inhibitor library screening) ([3]; 10μΜ, in %): 4.2
- cell viability (kinase inhibitor library screening) ([4]; 1μΜ, in %): 83.7
- cell viability (kinase inhibitor library screening) ([4]; 10μΜ, in %): 30.5
- cell viability (kinase inhibitor library screening) (A375 cells (parental); 1μΜ, in %): 80.1
- cell viability (kinase inhibitor library screening) (A375 cells (parental); 10μΜ, in %): 39.3
- cell viability (kinase inhibitor library screening) ([5]; 1μΜ, in %): 103.1
- cell viability (kinase inhibitor library screening) ([5]; 10μΜ, in %): -0.2
- cell viability (kinase inhibitor library screening) ([6]; 1μΜ, in %): 95.0
- cell viability (kinase inhibitor library screening) ([6]; 10μΜ, in %): 20.7
- cell viability (kinase inhibitor library screening) (IGR37 cells (parental); 1μΜ, in %): 97.3
- cell viability (kinase inhibitor library screening) (IGR37 cells (parental); 10μΜ, in %): 1.8

SMILES: Cc1cc2c(F)c(Oc3ncnn4cc(OC[C@@H](C)O)c(C)c34)ccc2[nH]1 [Brivanib (BMS-540215)]
- cell viability (kinase inhibitor library screening) ([1]; 1μΜ, in %): 103.4
- cell viability (kinase inhibitor library screening) ([1]; 10μΜ, in %): 79.9
- cell viability (kinase inhibitor library screening) ([2]; 1μΜ, in %): 106.3
- cell viability (kinase inhibitor library screening) ([2]; 10μΜ, in %): 89.6
- cell viability (kinase inhibitor library screening) (501Mel cells (parental); 1μΜ, in %): 104.3
- cell viability (kinase inhibitor library screening) (501Mel cells (parental); 10μΜ, in %): 93.4
- cell viability (kinase inhibitor library screening) ([3]; 1μΜ, in %): 107.9
- cell viability (kinase inhibitor library screening) ([3]; 10μΜ, in %): 73.1
- cell viability (kinase inhibitor library screening) ([4]; 1μΜ, in %): 104.1
- cell viability (kinase inhibitor library screening) ([4]; 10μΜ, in %): 89.7
- cell viability (kinase inhibitor library screening) (A375 cells (parental); 1μΜ, in %): 105.2
- cell viability (kinase inhibitor library screening) (A375 cells (parental); 10μΜ, in %): 84.3
- cell viability (kinase inhibitor library screening) ([5]; 1μΜ, in %): 100.3
- cell viability (kinase inhibitor library screening) ([5]; 10μΜ, in %): 80.7
- cell viability (kinase inhibitor library screening) ([6]; 10μΜ, in %): 95.2
- cell viability (kinase inhibitor library screening) (IGR37 cells (parental); 10μΜ, in %): 99.8

SMILES: Cc1cc2c(F)c(Oc3ncnn4cc(OC[C@@H](C)OC(=O)[C@H](C)N)c(C)c34)ccc2[nH]1 [Brivanib alaninate (BMS-582664)]
- cell viability (kinase inhibitor library screening) ([1]; 1μΜ, in %): 98.8
- cell viability (kinase inhibitor library screening) ([1]; 10μΜ, in %): 80.1
- cell viability (kinase inhibitor library screening) ([2]; 1μΜ, in %): 107.2
- cell viability (kinase inhibitor library screening) ([2]; 10μΜ, in %): 88.2
- cell viability (kinase inhibitor library screening) (501Mel cells (parental); 1μΜ, in %): 99.4
- cell viability (kinase inhibitor library screening) (501Mel cells (parental); 10μΜ, in %): 91.7
- cell viability (kinase inhibitor library screening) ([3]; 1μΜ, in %): 99.9
- cell viability (kinase inhibitor library screening) ([3]; 10μΜ, in %): 74.9
- cell viability (kinase inhibitor library screening) ([4]; 1μΜ, in %): 105.2
- cell viability (kinase inhibitor library screening) ([4]; 10μΜ, in %): 81.3
- cell viability (kinase inhibitor library screening) (A375 cells (parental); 1μΜ, in %): 104.1
- cell viability (kinase inhibitor library screening) (A375 cells (parental); 10μΜ, in %): 82.8
- cell viability (kinase inhibitor library screening) ([5]; 1μΜ, in %): 97.0
- cell viability (kinase inhibitor library screening) ([5]; 10μΜ, in %): 83.1
- cell viability (kinase inhibitor library screening) ([6]; 1μΜ, in %): 99.8
- cell viability (kinase inhibitor library screening) ([6]; 10μΜ, in %): 95.3
- cell viability (kinase inhibitor library screening) (IGR37 cells (parental); 1μΜ, in %): 107.1
- cell viability (kinase inhibitor library screening) (IGR37 cells (parental); 10μΜ, in %): 96.2

SMILES: CN(C)c1ccc(-c2nc3ncc(Cl)c(N4CCN(CC(=O)Nc5nccs5)CC4)c3[nH]2)cc1 [CCT129202]
- cell viability (kinase inhibitor library screening) ([1]; 1μΜ, 72 h): 104.8%
- cell viability (kinase inhibitor library screening) ([1]; 10μΜ, 72 h): 45.0%
- cell viability (kinase inhibitor library screening) ([2]; 1μΜ, 72 h): 99.5%
- cell viability (kinase inhibitor library screening) ([2]; 10μΜ, 72 h): 41.1%
- cell viability (kinase inhibitor library screening) (501Mel cells (parental); 1μΜ, 72 h): 93.7%
- cell viability (kinase inhibitor library screening) (501Mel cells (parental); 10μΜ, 72 h): 52.8%
- cell viability (kinase inhibitor library screening) ([3]; 1μΜ, 72 h): 96.6%
- cell viability (kinase inhibitor library screening) ([3]; 10μΜ, 72 h): 40.5%
- cell viability (kinase inhibitor library screening) ([4]; 1μΜ, 72 h): 105.5%
- cell viability (kinase inhibitor library screening) ([4]; 10μΜ, 72 h): 49.9%
- cell viability (kinase inhibitor library screening) (A375 cells (parental); 10μΜ, 72 h): 45.9%
- cell viability (kinase inhibitor library screening) ([5]; 1μΜ, 72 h): 85.2%
- cell viability (kinase inhibitor library screening) ([5]; 10μΜ, 72 h): 16.7%
- cell viability (kinase inhibitor library screening) ([6]; 1μΜ, 72 h): 88.1%
- cell viability (kinase inhibitor library screening) ([6]; 10μΜ, 72 h): 76.6%
- cell viability (kinase inhibitor library screening) (IGR37 cells (parental); 1μΜ, 72 h): 95.8%
- cell viability (kinase inhibitor library screening) (IGR37 cells (parental); 10μΜ, 72 h): 78.6%
